The results in this text go back to paper PMC6934184, “Selective DNA-PKcs inhibition extends the therapeutic index of localized radiotherapy and chemotherapy” (The Journal of Clinical Investigation, 2019).

The experiment addresses T1, CLK3 (Homo sapiens, UniProt P49761).
T1 construct: purchased Thermo Fisher Scientific (Life Technologies) SelectScreen
The experiment in a line: SelectScreen Z'LYTE. In kind it is biochemical. The method in brief: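 NU5455 was profiled across the SelectScreen Broad panel of kinase activity and binding assays. Z'LYTE reactions such as CSF1R ran at apparent Km ATP, while the Adapta CAMK1 assay used ATP listed as 10. Values are given as percent.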

T1 sequence (P49761 whole entry): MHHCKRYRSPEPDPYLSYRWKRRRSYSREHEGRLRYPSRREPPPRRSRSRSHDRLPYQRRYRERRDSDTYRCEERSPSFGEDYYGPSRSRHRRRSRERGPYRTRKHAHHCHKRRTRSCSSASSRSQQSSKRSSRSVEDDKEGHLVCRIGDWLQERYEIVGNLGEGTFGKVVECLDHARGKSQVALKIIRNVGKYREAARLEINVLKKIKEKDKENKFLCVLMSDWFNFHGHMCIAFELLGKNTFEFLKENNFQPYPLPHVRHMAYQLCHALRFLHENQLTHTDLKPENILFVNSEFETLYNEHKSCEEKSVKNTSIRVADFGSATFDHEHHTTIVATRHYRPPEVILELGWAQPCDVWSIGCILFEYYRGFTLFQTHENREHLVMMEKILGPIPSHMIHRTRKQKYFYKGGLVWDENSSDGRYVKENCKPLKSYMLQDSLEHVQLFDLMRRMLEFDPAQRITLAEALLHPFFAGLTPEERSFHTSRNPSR

By inhibition is commonly meant the relative decrease from the control value, in per cent. For the compound `CN(C(=O)CN1CCOCC1)c1ccc2sc3c(-c4cccc5c(=O)cc(N6CC7CCC(C6)O7)oc45)cccc3c2c1` [NU5455], the inhibition at 1 µM was -0.5%.
